Test system: hepSC
Experiment: Dasatinib withdrawal or replacement in hSC media, maintenance of hepSC stem cell state
Conditions: for survival of hepatic stem cells: ABL kinase inhibitor together with SRC inhibition, replacing Dasatinib; for rescue of phenotype after subculturing / rescue of cell phenotype: added instead of Dasatinib; for rescue of phenotype after subculturing: 48 hr after subculturing; for rescue of cell phenotype: 6 days after withdrawal; for rescue of cell morphology changes: replacement of Dasatinib with the inhibitor, 48 hrs

SMILES: Cc1ccc(NC(=O)c2ccc(CN3CCN(C)CC3)cc2)cc1Nc1nccc(-c2cccnc2)n1 [Imatinib]
- survival of hepatic stem cells: seems to improved survival of hepatic stem cells
- rescue of phenotype after subculturing: did not rescue the phenotype
- rescue of cell phenotype: did not rescue the cell phenotype
- rescue of cell morphology changes: did not rescue cell morphology changes

SMILES: Cc1cn(-c2cc(NC(=O)c3ccc(C)c(Nc4nccc(-c5cccnc5)n4)c3)cc(C(F)(F)F)c2)cn1 [Nilotinib]
- survival of hepatic stem cells: seems to improved survival of hepatic stem cells
- rescue of phenotype after subculturing: did not rescue the phenotype
- rescue of cell phenotype: did not rescue the cell phenotype
- rescue of cell morphology changes: did not rescue cell morphology changes
